# Assay results reported in patent US20190169134A1, “NOVEL CLASS OF QUINOLONE HETEROCYCLIC AROMATIC MOLECULES FOR CANCER TREATMENT” (RenoTarget Therapeutics, Inc., priority 2016, published 2019).
# Legend:
# Format in all cases: cell-based, human
# HCC827OR16 = assay: Cell growth inhibition by SRB method; details: Homo sapiens, AZD9291-resistant line, 72 hrs exposure
# From the text: (§1) Six human cancer cell lines have been used to evaluate effects of the compounds on proliferation of cancer cells. These cell lines include HCC827-P (or HCC827 parent cells), human non-small lung cancer cells, Parent NSCLC HCC827 cell line (which harbors EGFR gene amplification, Exon 19 (E19) deletion, and Exon 21 mutation (Wang, Ramakrishnan et al. 2010), and is an EGFRi sensitive cell line (Kim, Kim et al. 2010)); HCC827-TR16 (Tarceva-resistant HCC727 cell line), HCC827-OR16 (AZD9291-resistant HCC727 cell line), LNCaP (human prostate cancer cells—a hormonal-therapy sensitive cell line (Wang, Liu et al. 1997)); 22RV1 (human prostate cancer cells—a hormonal-therapy resistant cell line (Sramkoski, Pretlow et al. 1999)); and ACHN (human renal adenocarcinoma cells (Park, Jung et al. 2003)). LNCaP cells and 22RV1 cells were purchased from the American Type Culture Collection (Rockville, Md.) and others were gifts of friends.
# (§2) To evaluate activities of new compounds on growth of EGFR-inhibitor-resistant cells, two EGFRi-resistant cell lines, i.e., HCC827-TR16 and HCC827-OR16 were established using a method described by Eberlein et al. (Eberlein, Stetson et al. 2015). […] Resistant cells were collected and stabilized after 5 weeks (cycle 5). […] The resistant cells were sorted using 96-well dishes by culturing cells with density of 0.1, 1, 10, and 100 cells per well.
# (§3) All cell lines were maintained in RPMI-1640 (GIBCO, Gaithersburg, Md.) with 10% heat-inactivated bovine serum (FBS) (Wang, Ossowski et al. 2004).
# (§4) Sulforhodamine B (SRB) was used to estimate cell growth as described previously (Skehan, Storeng et al. 1990). Briefly, cells grown exponentially were aliquoted into 96-well plates at a density of 2,500 to 5,000 cells/200 μl per well in RPMI 1640 medium containing 10% FBS. After twenty-four hours, the cells were exposed to indicated concentrations of tested compounds for 72 hrs or otherwise as indicated. The cells were then fixed with 10% trichloride acetic acid for 2 h at 4° C. The 10% trichloride acetic acid was removed, and the dishes were washed 5 times with tape water, and air-dried. The fixed and dried cells were then stained with 0.4% SRB in 1% acetic acid for 25 min, and the dishes were washed 5 times with 1% acetic acid and air-dried overnight. 200 μl of 10 mM of Tris buffer (pH 10.0) were added, and the dishes were rotated to completely dissolve the color. Absorbance at 570 nm, with a reference wavelength 690 nm, was measured on a 96-well microplate reader (SPECTRO Star^Nano, BMG Labtech). Mean, standard deviation (SD) and the percent of growth inhibition at each concentration point of the treatment were calculated. The percent of growth inhibition as defined as (1−T/C)×100 where T is the mean of the absorbance at 570 nm from the treatment, and C from control (drug vehicle only). IC50 was calculated using Sigma-plot software by regression of growth-concentration curve from each drug treatment.
# HCC827P = assay: Cell growth inhibition by SRB method; details: Homo sapiens; 72 hrs exposure, SRB
# From the text: as §1, §2, §3, §4
# PD-L1 = assay: qRT-PCR expression of PD-L1 in HCC827-P cells; details: 1 μM, 24 hrs
# Experimental: FIG. 11 depicts the effects of Reno647 on expression of PD-L1 in HCC827-P and HCC827-TR cells. HCC827-P and HCC827-TR cells at exponential growth phase were exposed to indicated concentration of Reno647 for 24 hrs. Total cellular RNA was extracted and cDNA was prepared followed by qRT-PCR using specific probes for PD-L1 and GAPDH (internal control) as described in the section of Materials and Methods. Tgene ΔCt value was normalized for GAPDH by calculating ΔCt=Ctgene−CtGAPDH per sample.
# HCC827 P or other indicated cells at exponential growth phase were treated with indicated concentrations of compounds for 24 hours. Total cellular RNA was prepared from lysed tumor cells using an RNA Purification kit (ThermoFisher Scientific). The first-strand of cDNA was synthesized using a High Capacity cDNA reverse transcription kit (ThermoFisher Scientific) in PTC-100 Peltier Thermal Cycler PCR. The resultant cDNA (0.5-1 μL) was used in a 10 μl reaction by using Taqman Universal PCR Master Mix (ThermoFisher Scientific). The pre-designed primers and probe were purchased from Life Technologies and used for qPCR. Human GAPDH was used as an internal control. qPCR was performed using Applied Biosystems StepOne and StepOnePlus Real-Time PCR Systems according manufacturer's instructions. An initial PCR denaturation step was performed at 95° C. for 20 seconds. […]
smiles,measurement,setting,value
"C#Cc1cccc(Nc2ncnc3cc(OCCOC)c(NC(=O)c4ccc(F)c([N+](=O)[O-])c4)cc23)c1 [Reno647, 4-Fluoro-N-[4-(3-ethynyl-phenylamino)-7-(2-methoxy-ethoxy)-quinazolin-6-yl]-3-nitro-benzamide]",IC50,HCC827OR16,380 nM
same,IC50,HCC827P,150 nM
same,reduction of PD-L1 expression,PD-L1,Over 93%
